Data published in PMC10702058, “Phase I dose escalation study and pilot efficacy analysis of LXI-15029, a novel mTOR dual inhibitor, in Chinese subjects with advanced malignant solid tumors” (BMC Cancer, 2023).
“Also recorded” adds a separate entry of the source.

Key:
[1] = Plasma pharmacokinetics of LXI-15029 (LC-MS/MS, non-compartmental analysis); format: in vivo, human; conditions: for AUC(0-inf) / Cmax: human, plasma, geometric mean (coefficient of variation); for AUC(0-inf) / Cmax / CL/F / V/F: single dose, cycle 1 day 1; for RacAUC (accumulation ratio) / RacCmax (accumulation ratio) / t1/2ss: multiple dose, cycle 1 day 28; for RacAUC (accumulation ratio) / RacCmax (accumulation ratio) / t1/2ss / CL/F / V/F: arithmetic mean ± standard deviation
Protocol: Blood samples for PK analysis of LXI-15029 were collected on day 1 (pre-dose, 20 min, 40 min, 1 h, 1.5 h, 2 h, 3 h, 4 h, 6 h, 8 h, 12 h, 24 h, and 48 h), cycle 1 day 8 (pre-dose), cycle 1 day 15 (pre-dose), and cycle 1 day 28 (pre-dose, 20 min, 40 min, 1 h, 1.5 h, 2 h, 3 h, 4 h, 6 h, 8 h, and 12 h). The blood samples were stored at -70°C until testing. The concentration of LXI-15029 in plasma was measured using the validated liquid chromatography-tandem mass spectrometry (LC–MS/MS) method. The concentration–time information of LXI-15029 was summarized based on pre-dose and post-dose data of each patient, to explore the linearity of exposure with single dose and steady-state situations, the time to reach steady state and the predictability of single to multiple doses PK. PK parameters were calculated separately for single and repeated doses using descriptive statistics. PK analysis was performed by Covance Central Laboratory using the validated software Phoenix WinNonlin Version 8.1 (Pharsight, Mountain View, CA). A standard non-compartmental method was used to calculate the peak plasma concentration (Cmax), time to reach the Cmax (tmax), the total area under the concentration–time curve (AUC0-∞), and the elimination half-life (t1/2).

[2] = tested on: advanced malignant solid tumors; test: Investigator-assessed antitumor effect (RECIST 1.1: ORR, DCR, PFS)
Protocol: All safety, tolerance, PK, and antitumor data from each dose group were tabulated and summarized according to the statistical analysis plan. The statistical analysis of the study was descriptive. The continuous variables were described as mean ± standard deviation or median (minimum, maximum). […] The categorical variables were described as n (%). PFS was summarized using the Kaplan–Meier method. […] All data processing, summaries, and analyses were performed using SAS 9.4 (SAS Institute, Cary, NC, USA).

For `CNC(=O)c1cccc(-c2ccc3c(N4C5CCC4COC5)nc(N4CCOC[C@@H]4C)nc3n2)c1` [LXI-15029], the AUC(0-inf) ([1]; oral, 10 mg BID (n = 3)) was 111 ng·h/mL, the Cmax ([1]; oral, 10 mg BID (n = 3)) was 66.5 ng/mL and the AUC(0-inf) ([1]; oral, 20 mg BID (n = 3)) was 898 ng·h/mL. For the same compound, the Cmax ([1]; oral, 20 mg BID (n = 3)) was 474 ng/mL, the AUC(0-inf) ([1]; oral, 40 mg BID (n = 3)) was 1680 ng·h/mL and the Cmax ([1]; oral, 40 mg BID (n = 3)) was 1010 ng/mL. It also gave an AUC(0-inf) ([1]; oral, 60 mg BID (n = 4)) of 3750 ng·h/mL, a Cmax ([1]; oral, 60 mg BID (n = 4)) of 1340 ng/mL and an AUC(0-inf) ([1]; oral, 80 mg BID (n = 4)) of 1870 ng·h/mL. The Cmax ([1]; oral, 80 mg BID (n = 4)) was 1340 ng/mL, the AUC(0-inf) ([1]; oral, 110 mg BID (n = 3)) was 5340 ng·h/mL and the Cmax ([1]; oral, 110 mg BID (n = 3)) was 2930 ng/mL. The AUC(0-inf) ([1]; oral, 150 mg BID (n = 4)) was 12100 ng·h/mL, the Cmax ([1]; oral, 150 mg BID (n = 4)) was 4140 ng/mL and the “RacAUC (accumulation ratio)” value ([1]; 10 mg BID (n = 3)) was 2.08 ± 1.289. The “RacCmax (accumulation ratio)” value ([1]; 10 mg BID (n = 3)) was 1.96 ± 1.061, the t1/2ss ([1]; 10 mg BID (n = 3)) was 1.13 ± 0.080 h and the “RacAUC (accumulation ratio)” value ([1]; 20 mg BID (n = 3)) was 0.99 ± 0.260. The “RacCmax (accumulation ratio)” value ([1]; 20 mg BID (n = 3)) was 0.75 ± 0.140, the t1/2ss ([1]; 20 mg BID (n = 3)) was 1.24 ± 0.167 h and the “RacAUC (accumulation ratio)” value ([1]; 40 mg BID (n = 3)) was 1.00 ± 0.036. For the same compound, the “RacCmax (accumulation ratio)” value ([1]; 40 mg BID (n = 3)) was 1.02 ± 0.180, the t1/2ss ([1]; 40 mg BID (n = 3)) was 1.14 ± 0.250 h and the “RacAUC (accumulation ratio)” value ([1]; 60 mg BID (n = 4)) was 1.47 ± 0.546. For the same compound, the “RacCmax (accumulation ratio)” value ([1]; 60 mg BID (n = 4)) was 1.37 ± 0.382, the t1/2ss ([1]; 60 mg BID (n = 4)) was 1.90 ± 0.197 h and the “RacAUC (accumulation ratio)” value ([1]; 80 mg BID (n = 4)) was 1.78 ± 0.268. The “RacCmax (accumulation ratio)” value ([1]; 80 mg BID (n = 4)) was 1.28 ± 0.102, the t1/2ss ([1]; 80 mg BID (n = 4)) was 1.33 ± 0.068 h and the “RacAUC (accumulation ratio)” value ([1]; 110 mg BID (n = 3)) was 2.51 ± 0.778. The “RacCmax (accumulation ratio)” value ([1]; 110 mg BID (n = 3)) was 1.37 ± 0.352, the t1/2ss ([1]; 110 mg BID (n = 3)) was 2.33 ± 0.857 h and the “RacAUC (accumulation ratio)” value ([1]; 150 mg BID (n = 4)) was 2.39 ± 0.768. The “RacCmax (accumulation ratio)” value ([1]; 150 mg BID (n = 4)) was 1.36 ± 0.507, the t1/2ss ([1]; 150 mg BID (n = 4)) was 3.26 ± 1.247 h and the “absorption after oral administration” value ([1]; oral) was “absorbed rapidly; also recorded: fast absorbed”. It also gave a CL/F ([1]; 10 mg BID (n = 3)) of 99.45 ± 51.035 L/h, a V/F ([1]; 10 mg BID (n = 3)) of 126.07 ± 40.383 L and a CL/F ([1]; 20 mg BID (n = 3)) of 24.11 ± 11.940 L/h. For the same compound, the V/F ([1]; 20 mg BID (n = 3)) was 49.56 ± 19.453 L, the CL/F ([1]; 40 mg BID (n = 3)) was 24.58 ± 7.772 L/h and the V/F ([1]; 40 mg BID (n = 3)) was 42.35 ± 25.602 L. For the same compound, the CL/F ([1]; 60 mg BID (n = 4)) was 16.47 ± 4.677 L/h, the V/F ([1]; 60 mg BID (n = 4)) was 45.88 ± 14.063 L and the CL/F ([1]; 80 mg BID (n = 4)) was 48.30 ± 25.396 L/h. For the same compound, the V/F ([1]; 80 mg BID (n = 4)) was 92.88 ± 47.995 L, the CL/F ([1]; 110 mg BID (n = 3)) was 24.35 ± 17.791 L/h and the V/F ([1]; 110 mg BID (n = 3)) was 43.99 ± 17.319 L. The CL/F ([1]; 150 mg BID (n = 4)) was 12.57 ± 2.022 L/h, the V/F ([1]; 150 mg BID (n = 4)) was 34.75 ± 12.576 L and the “disease control rate (DCR)” value ([2]; 8/20 evaluable, 95% CI 21.7–60.6) was 40%. The “complete or partial response (CR or PR)” value ([2]; 20 evaluable participants) was “No participants achieved CR or PR”, the median progression-free survival ([2]; evaluable patients, overall, from first dose) was 29 days and the “relationship between Ctrough and median PFS or DCR” value ([2]; exposure-efficacy analysis) was “no relationship was found”. For the same compound, the DCR-dose correlation ([2]; in vivo) was “No DCR-dose correlation was observed”, the “patients with stable disease” value ([2]; of 20 evaluable) was “Eight” and the “duration of SD” value ([2]; one participant with fibrosarcoma, 20 mg BID) was 344 days. The “median PFS” value ([2]; patients with breast cancer, 95% CI: 0.89–4.63) was 0.95 months and the “median PFS” value ([2]; patients with sarcoma, 95% CI: 0.92–11.33) was 0.97 months.
